The results in this text go back to patent US20060040884A1, “Antisense oligonucleotides directed to genes regulated by trapoxin-induced HDAC inhibition” (priority 2001, published 2006).

Square brackets hold non-standard residues; d marks the D form. Peptide text beside a SMILES is read from it. ξ: configuration not given here. Aoe(9ξ) = N[C@@H](CCCCCC(=O)C1CO1)C(=O)O; dPip = O=C(O)[C@H]1CCCCN1

The test system of one experiment is RhoB promoter. In words: RhoB promoter luciferase reporter assay in transfected H1299 cells treated with TPX. (A reporter such as luciferase makes a cellular process visible.)
The test system of another experiment is H1299 cells. Briefly: Additional microarray analysis of RhoA, RhoB, RhoC expression in TPX-treated H1299 cells. It is filed as cell-based, human. As to conditions: H1299 cells treated with 30 nm TPX. As for the experimental part:
Microarray analysis is performed essentially as described in Welsh, J. B. Cancer Res. 61 5974-8 (2001). Poly (A)+ RNA is prepared from H1299 cells treated with TPX or DMSO for 0, 6, and 24 h. RNA is also prepared from 136 transformed cell lines. Labelled cDNA is prepared and hybridized to HU6800 or U95a oligonucleotide arrays (Affymetrix, Santa Clara, Calif.). The arrays are scanned on an Affymetrix confocal scanner and analyzed with GENECHIP 3.1 software (Affymetrix). T-test of the results is done.

`O=C(CCCCC[C@@H]1NC(=O)[C@H]2CCCCN2C(=O)[C@H](Cc2ccccc2)NC(=O)[C@H](Cc2ccccc2)NC1=O)C1CO1` (stereo partly drawn) [TPX, Trapoxin A] (cyclo(FF[dPip][Aoe(9ξ)])): the “Induction of luciferase activity driven by the RhoB promoter” value in the experiment with RhoB promoter (30 nM TPX 24 h, normalized to DMSO) was “about 10 fold”. Besides, the “Effect of insertion of three nucleotides (AAA) between CCAAT and TATA boxes on TPX induction” value in the experiment with RhoB promoter (30 nM TPX vs 0.1% DMSO, 24 h) was “no effect”. For the same compound, the “Induction of RhoB promoter 5′ deletion constructs (luciferase activity)” value with RhoB promoter (all constructs generated) is reported as “induced by TPX to a similar extent”. In the experiment with H1299 cells, the “Expression of RhoA (additional microarray analysis)” value was “unchanged”, the “Expression of RhoC (additional microarray analysis)” value is listed as “unchanged” and the “RhoB upregulation (additional microarray analysis)” value is “approximately 8 fold”.
